# Test results taken from patent publication US9840500B2, “Compounds as dual inhibitors of histone methyltransferases and DNA methyltransferases” (FUNDACIÓN PARA LA INVESTIGACIÓN MÉDICA APLICADA, priority 2014, dated 2017).
# How the values were obtained:
# human G9a enzyme = molecular target: T1, human G9a enzyme (Homo sapiens, UniProt Q96KQ7); assay: G9a enzyme activity assay (TR-FRET); format: biochemical
# T1 sequence (Q96KQ7 1-1210): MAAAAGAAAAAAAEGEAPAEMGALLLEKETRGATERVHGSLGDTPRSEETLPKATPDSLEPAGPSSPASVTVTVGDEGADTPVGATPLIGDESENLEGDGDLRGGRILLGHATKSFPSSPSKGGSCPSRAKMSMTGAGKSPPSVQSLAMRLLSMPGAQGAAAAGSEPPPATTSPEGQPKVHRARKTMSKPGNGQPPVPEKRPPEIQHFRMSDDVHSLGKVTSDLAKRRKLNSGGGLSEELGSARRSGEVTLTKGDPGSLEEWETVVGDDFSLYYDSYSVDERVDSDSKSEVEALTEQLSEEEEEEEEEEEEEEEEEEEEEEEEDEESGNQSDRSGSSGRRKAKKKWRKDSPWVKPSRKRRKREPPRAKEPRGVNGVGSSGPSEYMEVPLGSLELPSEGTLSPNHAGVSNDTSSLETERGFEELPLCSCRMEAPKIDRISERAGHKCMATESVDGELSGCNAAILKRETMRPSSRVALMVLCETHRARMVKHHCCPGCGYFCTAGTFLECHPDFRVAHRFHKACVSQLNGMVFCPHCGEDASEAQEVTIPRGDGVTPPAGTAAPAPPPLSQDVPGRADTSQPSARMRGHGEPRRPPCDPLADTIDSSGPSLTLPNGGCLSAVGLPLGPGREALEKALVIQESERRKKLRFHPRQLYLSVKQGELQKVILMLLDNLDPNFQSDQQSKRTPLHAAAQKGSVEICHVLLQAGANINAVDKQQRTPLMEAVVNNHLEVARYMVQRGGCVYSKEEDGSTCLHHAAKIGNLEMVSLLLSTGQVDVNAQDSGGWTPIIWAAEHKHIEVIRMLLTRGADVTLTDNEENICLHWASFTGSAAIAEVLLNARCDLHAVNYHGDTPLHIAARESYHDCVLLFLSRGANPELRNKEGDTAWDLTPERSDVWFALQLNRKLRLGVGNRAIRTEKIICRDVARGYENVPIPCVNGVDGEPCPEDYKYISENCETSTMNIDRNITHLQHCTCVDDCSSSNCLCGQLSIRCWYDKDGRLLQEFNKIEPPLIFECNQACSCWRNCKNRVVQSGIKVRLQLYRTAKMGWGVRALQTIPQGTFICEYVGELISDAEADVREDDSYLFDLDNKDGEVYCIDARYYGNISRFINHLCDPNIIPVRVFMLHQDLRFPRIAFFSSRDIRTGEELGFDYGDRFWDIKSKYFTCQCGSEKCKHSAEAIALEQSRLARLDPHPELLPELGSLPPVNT
# Protocol: The biochemical assay to measure G9a enzyme activity relies on time-resolved fluorescence energy transfer (TR-FRET) between europium cryptate (donor) and XL665 (acceptor). […] The human G9a enzyme expressed in a baculovirus infected Sf9 cell expression system was obtained from BPS Biosciences (Cat. #51001). […] Final percentage of DMSO was 0.5%. • 2 μl of 1 nM G9a enzyme diluted in assay buffer. […] Final concentration 150 nM. • Then, add 5 μl of streptavidin XL665 beads. Final concentration of 16 μM. • Read the plate after 1 hour of incubation at room temperature.
# (§1) For each well, fluorescence was measured at 620 nm and 665 nm. A ratio (665 nm/620 nm) was then calculated in order to minimize medium interferences. Positive control was obtained in the presence of the vehicle of the compounds. Negative control was obtained in the absence of G9a enzyme activity. Calculated IC50 values were determined using GraphPrism using 4-parameters inhibition curve.
# DNMT1 = DNMT1 (Homo sapiens, UniProt P26358); assay: DNMT1 enzyme activity assay (TR-FRET, EPIgeneous methyltransferase assay); format: biochemical
# Protocol: The biochemical assay to measure DNMT1 enzyme activity relies on time-resolved fluorescence energy transfer (TR-FRET) between lumi4-Tb (donor) and d2 (acceptor) using the EPIgeneous methyltransferase assay (CisBio Cat#62SAHPEB). […] TR-FRET signal is inversely proportional to the concentration of SAH, product of DNMT1 enzyme activity, in the sample.
# The human DNMT1 was obtained from Reaction Biology Corp. (Cat# DMT-21-124). […] Final percentage of DMSO was 0.5%. • 2 μl of 1 nM DNMT1 enzyme diluted in assay buffer.
# as §1
# CEMO-1 = assay: Cell proliferation assay, CEMO-1 (ALL); format: cell-based, human; conditions: Homo sapiens; 48 hours of treatment; Table 3
# Protocol: (§2) Cell proliferation was analyzed after 48 hours of in vitro treatment using the CellTiter 96 Aqueous One Solution Cell Proliferation Assay (Promega, Madison, Wis.). This is a colorimetric method for determining the number of viable cells in proliferation.
# (§3) For the assay, suspension cells were cultured by triplicate at a density of 1×10^6 cells/ml in 96-well plates (100.000 cells/well, 100 μl/well), except for OCILY-3 and OCILY-10 cell lines which were cultured at a density of 0.5×10^6 cells/ml (50.000 cells/well, 100 μl/well) and for HepG2, Hep3B and PLC/PRF/5 cell ines which were cultured at a density of 3000 cells/well, 100 μl/well). Adherent cells were obtained from 80-90% confluent flasks and 100 μl of cells were seeded at a density of 5000 cells/well in 96-well plates by triplicate. Before addition of the compounds, adherent cells were allowed to attach to the bottom of the wells for 12 hours. In all cases, only the 60 inner wells were used to avoid any border effects.
# (§4) After 48 hours of treatment, plates with suspension cells were centrifuged at 800 g for 10 minutes and medium was removed. The plates with adherent cells were flicked to remove medium. Then, cells were incubated with 100 ul/well of medium and 20 ul/well of CellTiter 96 Aqueous One Solution reagent. After 1-3 hours of incubation at 37° C., absorbance was measured at 490 nm in a 96-well plate reader. The background absorbance was measured in wells with only cell line medium and solution reagent. Data was calculated as a percentage of total absorbance of treated cell/absorbance of non treated cells.
# OCI-Ly3 = assay: Cell proliferation assay, OCI-Ly3 (ABC-DLBCL); format: cell-based; conditions: Homo sapiens, 48 hours of treatment, Table 3
# Protocol: as §2, §3, §4
# OCI-Ly10 = assay: Cell proliferation assay, OCI-Ly10 (ABC-DLBCL); format: cell-based; conditions: Homo sapiens, 48 hours of treatment, Table 3
# Protocol: as §2, §3, §4
# HepG2 = assay: Cell proliferation assay, HepG2 (HCC); format: cell-based; conditions: Homo sapiens, 48 hours of treatment, Table 3
# Protocol: as §2, §3, §4
# Hep3B = assay: Cell proliferation assay, Hep3B (HCC); format: cell-based; conditions: Homo sapiens, 48 hours of treatment, Table 3
# Protocol: as §2, §3, §4
# PLC/PRF/5 = assay: Cell proliferation assay, PLC/PRF/5 (HCC); format: cell-based; conditions: Homo sapiens, 48 hours of treatment, Table 3
# Protocol: as §2, §3, §4
# LAL-CUN-2 = assay: Cell proliferation assay, LAL-CUN-2 (ALL); format: cell-based; conditions: 48 hours of treatment; Table 3
# Protocol: as §2, §3, §4
# Chain of DNMT1 (P26358 whole entry): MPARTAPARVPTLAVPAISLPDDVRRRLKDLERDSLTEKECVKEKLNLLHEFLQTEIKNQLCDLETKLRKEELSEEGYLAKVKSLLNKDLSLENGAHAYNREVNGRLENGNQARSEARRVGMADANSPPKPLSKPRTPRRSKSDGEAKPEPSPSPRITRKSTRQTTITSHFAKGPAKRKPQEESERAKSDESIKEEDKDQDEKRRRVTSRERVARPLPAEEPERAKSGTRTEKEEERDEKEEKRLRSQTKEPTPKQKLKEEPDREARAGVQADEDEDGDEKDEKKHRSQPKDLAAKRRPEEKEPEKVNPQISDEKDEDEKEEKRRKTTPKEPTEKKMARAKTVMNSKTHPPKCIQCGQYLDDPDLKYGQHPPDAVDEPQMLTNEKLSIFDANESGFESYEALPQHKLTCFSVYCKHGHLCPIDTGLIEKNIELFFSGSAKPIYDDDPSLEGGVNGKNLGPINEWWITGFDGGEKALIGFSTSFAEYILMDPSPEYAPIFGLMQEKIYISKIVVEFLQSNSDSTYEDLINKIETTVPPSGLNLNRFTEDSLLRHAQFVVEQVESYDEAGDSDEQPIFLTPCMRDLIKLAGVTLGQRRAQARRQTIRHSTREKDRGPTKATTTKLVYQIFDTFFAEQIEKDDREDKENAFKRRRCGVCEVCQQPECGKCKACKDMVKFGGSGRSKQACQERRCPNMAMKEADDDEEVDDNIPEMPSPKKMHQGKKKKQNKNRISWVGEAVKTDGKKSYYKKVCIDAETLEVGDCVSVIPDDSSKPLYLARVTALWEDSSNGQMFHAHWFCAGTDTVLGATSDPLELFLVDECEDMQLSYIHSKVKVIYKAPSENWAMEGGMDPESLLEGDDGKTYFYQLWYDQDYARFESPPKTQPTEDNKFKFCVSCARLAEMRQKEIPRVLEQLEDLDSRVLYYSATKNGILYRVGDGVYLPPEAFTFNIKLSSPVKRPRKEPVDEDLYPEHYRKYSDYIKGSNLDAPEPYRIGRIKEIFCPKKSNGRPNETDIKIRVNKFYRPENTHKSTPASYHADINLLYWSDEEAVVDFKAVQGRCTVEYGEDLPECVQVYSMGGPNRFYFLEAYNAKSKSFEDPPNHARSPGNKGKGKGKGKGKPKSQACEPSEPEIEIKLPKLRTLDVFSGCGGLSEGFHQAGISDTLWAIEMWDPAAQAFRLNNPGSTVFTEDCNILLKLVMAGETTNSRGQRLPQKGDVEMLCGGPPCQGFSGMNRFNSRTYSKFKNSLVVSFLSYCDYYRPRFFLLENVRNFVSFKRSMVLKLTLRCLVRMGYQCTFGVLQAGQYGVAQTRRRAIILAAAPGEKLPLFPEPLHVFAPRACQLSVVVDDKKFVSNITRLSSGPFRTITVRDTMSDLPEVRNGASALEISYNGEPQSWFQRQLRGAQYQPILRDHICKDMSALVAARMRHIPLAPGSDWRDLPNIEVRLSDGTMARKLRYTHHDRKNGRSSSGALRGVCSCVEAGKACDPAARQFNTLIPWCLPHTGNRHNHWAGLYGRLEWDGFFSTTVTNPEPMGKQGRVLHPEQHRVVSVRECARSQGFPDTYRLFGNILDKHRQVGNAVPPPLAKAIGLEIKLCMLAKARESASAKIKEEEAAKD
SMILES,IC50 (human G9a enzyme),IC50 (DNMT1),GI50 (CEMO-1),GI50 (OCI-Ly3),GI50 (OCI-Ly10),GI50 (HepG2),GI50 (Hep3B),GI50 (PLC/PRF/5),GI50 (LAL-CUN-2)
COc1cc2c(NC3CCN(C)CC3)cc(-c3ccccc3)nc2cc1OCCCN1CCCC1 [Compound 3-29],< 0.1 µM,1 to 10 µM,0.1 to 1 µM,0.1 to 1 µM,0.1 to 1 µM,1 to 10 µM,1 to 10 µM,1 to 10 µM,
COc1cc2c(NC3CCN(C)CC3)cc(-c3ccoc3)nc2cc1OCCCN1CCCC1 [Compound 3-27],< 0.1 µM,1 to 10 µM,1 to 10 µM,≤ 10 µM,0.1 to 1 µM,,,,≤ 10 µM
COc1cc2c(NC3CCN(C)CC3)cc(-c3ccc(C)o3)nc2cc1OC1CCN(C)CC1 [Compound 12-02],,,0.1 to 1 µM,0.1 to 1 µM,0.1 to 1 µM,1 to 10 µM,1 to 10 µM,1 to 10 µM,
COc1cc2c(NC3CCCC3)cc(C)nc2cc1OCCCN1CCCC1 [Compound 3-24],< 0.1 µM,1 to 10 µM,,,1 to 10 µM,,,,
COc1cc2c(NC3CCN(C)CC3)cc(-c3ccc(C)[nH]3)nc2cc1OCCCN1CCCC1 [Compound 3-31],< 0.1 µM,0.1 to 0.5 µM,1 to 10 µM,0.1 to 1 µM,0.1 to 1 µM,,,,≤ 10 µM
"COc1cc2c(NC3CCN(C)CC3)cc(C3=CCCCC3)nc2cc1OCCCN1CCCC1 [Compound 6-01, 2-(cyclohexen-1-yl)-6-methoxy-N-(1-methyl-4-piperidyl)-7-(3-pyrrolidin-1-ylpropoxy)quinolin-4-amine; 2,2,2-trifluoroacetic acid]",< 0.1 µM,0.1 to 0.5 µM,1 to 10 µM,,,,,,1 to 10 µM
COc1cc2c(NC3CCC34CCN(C)C4)cc(-c3ccc(C)o3)nc2cc1OCCCN1CCCC1 (centres unmarked) [Compound 5-04],,,,0.1 to 1 µM,,,,,1 to 10 µM
CCc1ccc(-c2cc(NC3CCN(C)CC3)c3cc(OC)c(OCCCN4CCCC4)cc3n2)o1 [Compound 3-41],,,,,,0.1 to 1 µM,0.1 to 1 µM,0.1 to 1 µM,0.1 to 1 µM
CCc1ccc(-c2cc(NC3C4CCC3CN(C)C4)c3cc(OC)c(OCCCN4CCCC4)cc3n2)o1 (centres unmarked) [Compound 3-51],< 0.1 µM,0.1 to 0.5 µM,0.1 to 1 µM,1 to 10 µM,0.1 to 1 µM,0.1 to 1 µM,0.1 to 1 µM,0.1 to 1 µM,
CCc1ccc(-c2cc(NC3CCN(C4CC4)CC3)c3cc(OC)c(OCCCN4CCCC4)cc3n2)o1 [Compound 3-48],< 0.1 µM,0.1 to 0.5 µM,0.1 to 1 µM,1 to 10 µM,0.1 to 1 µM,1 to 10 µM,1 to 10 µM,≤ 10 µM,
"CCc1ccc(-c2cc(NC3CCC34CCN(C)CC4)c3cc(OC)c(OCCCN4CCCC4)cc3n2)o1 (centres unmarked) [Compound 5-07, 2-(5-ethyl-2-furyl)-6-methoxy-N-(7-methyl-7-azaspiro[3.5]nonan-3-yl)-7-(3-pyrrolidin-1-ylpropoxy)quinolin-4-amine; 2,2,2-trifluoroacetic acid]",,,,< 0.1 µM,,0.1 to 1 µM,0.1 to 1 µM,0.1 to 1 µM,
CNC(=O)CCNc1cc(-c2ccc(C)o2)nc2cc(OCCCN3CCCC3)c(OC)cc12 [Compound 3-19],,,1 to 10 µM,0.1 to 1 µM,0.1 to 1 µM,≤ 10 µM,1 to 10 µM,1 to 10 µM,
"CCc1ccc(-c2cc(NC3CC4(CCN(C)CC4)C3)c3cc(OC)c(OCCCN4CCCC4)cc3n2)o1 [Compound 5-06, 2-(5-ethyl-2-furyl)-6-methoxy-N-(7-methyl-7-azaspiro[3.5]nonan-2-yl)-7-(3-pyrrolidin-1-ylpropoxy)quinolin-4-amine; 2,2,2-trifluoroacetic acid]",< 0.1 µM,0.1 to 0.5 µM,0.1 to 1 µM,0.1 to 1 µM,0.1 to 1 µM,0.1 to 1 µM,0.1 to 1 µM,0.1 to 1 µM,
CCc1ccc(-c2cc(NCC3CCN(C)CC3)c3cc(OC)c(OCCCN4CCCC4)cc3n2)o1 [Compound 3-42],,,,0.1 to 1 µM,,< 0.1 µM,0.1 to 1 µM,0.1 to 1 µM,0.1 to 1 µM
COc1cc2c(NC3CCN(C)CC3)cc(-c3ccco3)nc2cc1OCCCN1CCCC1 [Compound 3-40],< 0.1 µM,0.1 to 0.5 µM,< 0.1 µM,< 0.1 µM,< 0.1 µM,,,,0.1 to 1 µM
COc1cc2c(NC3CCN(C)CC3)cc(-c3ccc4occc4c3)nc2cc1OCCCN1CCCC1 [Compound 3-28],< 0.1 µM,0.5 to 1 µM,1 to 10 µM,,< 0.1 µM,,,,
CCc1ccc(-c2cc(NCC3CCN(C4CC4)CC3)c3cc(OC)c(OCCCN4CCCC4)cc3n2)o1 [Compound 3-49],0.1 to 0.5 µM,0.1 to 0.5 µM,0.1 to 1 µM,< 0.1 µM,0.1 to 1 µM,0.1 to 1 µM,0.1 to 1 µM,0.1 to 1 µM,
CCc1ccc(-c2cc(NC3CC4CCC(C3)N4C)c3cc(OC)c(OCCCN4CCCC4)cc3n2)o1 (centres unmarked) [Compound 3-50],< 0.1 µM,0.1 to 0.5 µM,0.1 to 1 µM,0.1 to 1 µM,1 to 10 µM,1 to 10 µM,1 to 10 µM,0.1 to 1 µM,
COc1cc2c(NC3CC4(CCN(C)CC4)C3)cc(-c3ccc(C)o3)nc2cc1OCCCN1CCCC1 [Compound 5-02],,,,0.1 to 1 µM,,1 to 10 µM,1 to 10 µM,1 to 10 µM,
COc1cc2c(NC3CC4(CCN(C)C4)C3)cc(-c3ccc(C)o3)nc2cc1OCCCN1CCCC1 (centres unmarked) [Compound 5-03],,,,0.1 to 1 µM,,,,,1 to 10 µM
COc1cc2c(NC3CCNCC3)cc(-c3ccc(C)o3)nc2cc1OCCCN1CCCC1 [Compound 3-08],< 0.1 µM,0.1 to 0.5 µM,1 to 10 µM,1 to 10 µM,≤ 10 µM,,,,1 to 10 µM
